# Laboratory results reported in patent US6737383B1, “Herbicidal oxadiazolidines” (priority 1999, dated 2004).
# Columns and labels:
# [1] = test system: duck salad; assay: Test B flood test duck salad; format: in vivo, Heteranthera limosa; conditions: for Plant response rating, Ducksalad (0 to 10 scale, 0 is no effect, 10 is complete control) / Ducksalad plant response rating (0 to 10 scale, 0 is no effect, 10 is complete control): visual evaluation after twelve to sixteen days; for Ducksalad plant response rating (0 to 10 scale, 0 is no effect, 10 is complete control): under heading Pre-emergence
# Method in brief: (§1)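 Plants were grown to the 2-leaf stage before treatment with test chemical, then held in a greenhouse for twelve to sixteen days. Injury was visually rated against untreated controls on a 0–10 scale, where 0 is no effect and 10 is complete control.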
# [2] = test system: smallflower flatsedge; assay: Test B flood test smallflower flatsedge; format: in vivo, Cyperus difformis; conditions: for Plant response rating, S. Flatsedge (0 to 10 scale, 0 is no effect, 10 is complete control) / S. Flatsedge plant response rating (0 to 10 scale, 0 is no effect, 10 is complete control): visual evaluation after twelve to sixteen days; for S. Flatsedge plant response rating (0 to 10 scale, 0 is no effect, 10 is complete control): under heading Pre-emergence
# Method in brief: as §1
# [3] = test system: soybean; assay: Test B pre/postemergence soybean; format: in vivo, Glycine max
# Method in brief: (§2)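 Herbicidal effect was estimated by eye on a ten-point control scale after plants spent twelve to sixteen days in a greenhouse following soil or foliar treatment. Foliar sprays targeted plants at one to four leaves; all doses were formulated in a non-phytotoxic solvent with surfactant.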
# [4] = test system: velvetleaf; assay: Test B pre/postemergence velvetleaf; format: in vivo, Abutilon theophrasti
# Method in brief: as §2
# [5] = Rate 62 g/ha, headed Pre-emergence (flood test species), scale 0 to 10 (0 no effect, 10 complete control)
# [6] = Rate 125 g/ha, Pre-emergence, flood test species, scale 0 to 10 where 0 is no effect and 10 is complete control
# [7] = Rate 250 g/ha, headed Pre-emergence (flood test species), scale 0 to 10 (0 no effect, 10 complete control)
# [8] = Rate 500 g/ha, headed Pre-emergence (flood test species), scale 0 to 10 (0 no effect, 10 complete control)
# [9] = Postemergence, Rate 125 g/ha, scale of 0 to 10 where 0 is no effect and 10 is complete control
# [10] = Preemergence, Rate 62 g/ha, scale 0 to 10 (0 no effect, 10 complete control)
# [11] = Preemergence, Rate 125 g/ha, 0 is no effect, 10 is complete control
# [12] = Preemergence, Rate 250 g/ha, scale 0 to 10, 0 is no effect, 10 is complete control
# [13] = Preemergence, Rate 500 g/ha, scale 0 to 10 (0 no effect, 10 complete control)
# [14] = Rate 62 g/ha, Postemergence, scale of 0 to 10 where 0 is no effect and 10 is complete control
# [15] = Rate 250 g/ha, Postemergence, scale 0 to 10, 0 is no effect, 10 is complete control
# [16] = Rate 500 g/ha, Postemergence, scale 0 to 10
# [17] = Rate 62 g/ha, flood test species, Pre-emergence
# [18] = Rate 125 g/ha, flood test species
# [19] = Rate 250 g/ha, Pre-emergence (flood test species), scale 0 to 10, 0 is no effect, 10 is complete control
# [20] = Rate 500 g/ha, Pre-emergence, flood test species, scale 0 to 10 (0 no effect, 10 complete control)
# [21] = Postemergence, Rate 250 g/ha, scale 0 to 10
# [22] = Preemergence, Rate 62 g/ha, scale of 0 to 10 where 0 is no effect and 10 is complete control
# [23] = Preemergence, Rate 125 g/ha, scale of 0 to 10 where 0 is no effect and 10 is complete control
# [24] = Preemergence, Rate 500 g/ha, scale 0 to 10, 0 is no effect, 10 is complete control
# [25] = Rate 62 g/ha, Postemergence, scale 0 to 10, 0 no effect, 10 complete control
# [26] = Rate 125 g/ha, Postemergence, scale 0 to 10, 0 is no effect, 10 is complete control
# [27] = Rate 250 g/ha, Pre-emergence, flood-test species, scale 0 to 10, 0 is no effect, 10 is complete control
# [28] = Postemergence, Rate 250 g/ha, scale 0 to 10, 0 is no effect, 10 is complete control
# [29] = Postemergence, Rate 500 g/ha, scale of 0 to 10 where 0 is no effect and 10 is complete control
# [30] = Postemergence, Rate 62 g/ha, scale 0 to 10, 0 is no effect, 10 is complete control
# [31] = Postemergence, Rate 250 g/ha, scale 0 to 10, 0 no effect, 10 complete control
# [32] = Preemergence, Rate 125 g/ha, scale 0 to 10 (0 no effect, 10 complete control)
# [33] = Preemergence, Rate 250 g/ha, scale of 0 to 10 where 0 is no effect and 10 is complete control
# [34] = Preemergence, Rate 500 g/ha, scale 0 (no effect) to 10 (complete control)
# [35] = Rate 125 g/ha, Postemergence, scale 0 to 10, 0 no effect, 10 complete control
# [36] = Rate 500 g/ha, Postemergence, scale 0 to 10, 0 no effect, 10 complete control
compound,measurement,setting,value
CC(C)N(C(=O)n1oc(=O)n(C(C)(C)C)c1=O)c1ccccc1 [Compound 129],Ducksalad plant response rating,[1]; [5],5
same,Ducksalad plant response rating,[1]; [6],5
same,Ducksalad plant response rating,[1]; [7],5
same,"Plant response rating, Ducksalad",[1]; [8],5
same,S. Flatsedge plant response rating,[2]; [5],3
same,S. Flatsedge plant response rating,[2]; [6],5
same,S. Flatsedge plant response rating,[2]; [7],9
same,"Plant response rating, S. Flatsedge",[2]; [8],9
same,Soybean plant response rating,[3]; [9],2
same,Soybean plant response rating,[3]; [10],0
same,Soybean plant response rating (0 to 10 scale),[3]; [11],0
same,Soybean plant response rating,[3]; [12],0
same,Soybean plant response rating,[3]; [13],2
same,Soybean plant response rating,[3]; [14],1
same,"Plant response rating, Soybean",[3]; [15],4
same,Soybean plant response rating,[3]; [16],4
same,Velvetleaf plant response rating,[4]; [9],0
same,Velvetleaf plant response rating,[4]; [10],0
same,Velvetleaf plant response rating (0 to 10 scale),[4]; [11],0
same,Velvetleaf plant response rating,[4]; [12],4
same,Velvetleaf plant response rating,[4]; [13],6
same,Velvetleaf plant response rating,[4]; [14],0
same,"Plant response rating, Velvetleaf",[4]; [15],0
same,Velvetleaf plant response rating,[4]; [16],0
CCC=CCn1c(=O)on(C(=O)N(c2ccccc2)C(C)C)c1=O [Compound 454],"Plant response rating, Ducksalad (0 to 10 scale, 0 is no effect, 10 is complete control)",[1]; [17],0
same,"Ducksalad plant response rating (0 to 10 scale, 0 is no effect, 10 is complete control)",[1]; [18],0
same,Ducksalad plant response rating,[1]; [19],0
same,Ducksalad plant response rating,[1]; [20],0
same,"Plant response rating, S. Flatsedge (0 to 10 scale, 0 is no effect, 10 is complete control)",[2]; [17],0
same,"S. Flatsedge plant response rating (0 to 10 scale, 0 is no effect, 10 is complete control)",[2]; [18],0
same,S. Flatsedge plant response rating,[2]; [19],0
same,S. Flatsedge plant response rating,[2]; [20],0
same,Soybean plant response rating,[3]; [21],2
same,"Plant response rating, Soybean",[3]; [22],0
same,"Plant response rating, Soybean",[3]; [23],0
same,Soybean plant response rating,[3]; [12],0
same,Soybean plant response rating,[3]; [24],0
same,Soybean plant response rating,[3]; [25],1
same,Soybean plant response rating,[3]; [26],2
same,Velvetleaf plant response rating,[4]; [21],0
same,"Plant response rating, Velvetleaf",[4]; [22],0
same,"Plant response rating, Velvetleaf",[4]; [23],0
same,Velvetleaf plant response rating,[4]; [12],5
same,Velvetleaf plant response rating,[4]; [24],6
same,Velvetleaf plant response rating,[4]; [25],0
same,Velvetleaf plant response rating,[4]; [26],0
Cc1nc(Cl)sc1C(C)n1c(=O)on(C(=O)N(c2ccc(F)cc2)C(C)C)c1=O (centres unmarked) [Compound 401],"Plant response rating, Ducksalad (0 to 10 scale, 0 is no effect, 10 is complete control)",[1]; [17],0
same,"Ducksalad plant response rating (0 to 10 scale, 0 is no effect, 10 is complete control)",[1]; [18],0
same,Ducksalad plant response rating,[1]; [27],0
same,Ducksalad plant response rating,[1]; [20],0
same,"Plant response rating, S. Flatsedge (0 to 10 scale, 0 is no effect, 10 is complete control)",[2]; [17],0
same,"S. Flatsedge plant response rating (0 to 10 scale, 0 is no effect, 10 is complete control)",[2]; [18],0
same,S. Flatsedge plant response rating,[2]; [27],0
same,S. Flatsedge plant response rating,[2]; [20],0
same,"Plant response rating, Soybean",[3]; [28],1
same,Soybean plant response rating,[3]; [29],1
same,"Plant response rating, Soybean",[3]; [10],0
same,"Plant response rating, Soybean",[3]; [23],0
same,Soybean plant response rating,[3]; [12],0
same,Soybean plant response rating,[3]; [24],3
same,Soybean plant response rating,[3]; [14],0
same,"Plant response rating, Velvetleaf",[4]; [28],0
same,Velvetleaf plant response rating,[4]; [29],3
same,"Plant response rating, Velvetleaf",[4]; [10],0
same,"Plant response rating, Velvetleaf",[4]; [23],0
same,Velvetleaf plant response rating,[4]; [12],0
same,Velvetleaf plant response rating,[4]; [24],0
same,Velvetleaf plant response rating,[4]; [14],0
Cc1ccccc1-n1c(=O)on(C(=O)N(Cc2ccccc2)C(C)C)c1=O [Compound 72],Ducksalad plant response rating,[1]; [5],0
same,Ducksalad plant response rating,[1]; [6],0
same,Ducksalad plant response rating,[1]; [7],0
same,"Plant response rating, Ducksalad",[1]; [8],0
same,S. Flatsedge plant response rating,[2]; [5],0
same,S. Flatsedge plant response rating,[2]; [6],0
same,S. Flatsedge plant response rating,[2]; [7],0
same,"Plant response rating, S. Flatsedge",[2]; [8],0
same,Soybean plant response rating,[3]; [30],0
same,Soybean plant response rating,[3]; [31],0
same,Soybean plant response rating,[3]; [10],0
same,"Plant response rating, Soybean",[3]; [32],0
same,"Plant response rating, Soybean",[3]; [33],0
same,Soybean plant response rating,[3]; [34],0
same,Soybean plant response rating,[3]; [35],0
same,Soybean plant response rating,[3]; [36],0
same,Velvetleaf plant response rating,[4]; [30],0
same,Velvetleaf plant response rating,[4]; [31],0
same,Velvetleaf plant response rating,[4]; [10],0
same,"Plant response rating, Velvetleaf",[4]; [32],0
same,"Plant response rating, Velvetleaf",[4]; [33],0
same,Velvetleaf plant response rating,[4]; [34],0
same,Velvetleaf plant response rating,[4]; [35],0
same,Velvetleaf plant response rating,[4]; [36],0
